# Measurements from the supplement of paper PMC11451515.
# System: SEM cells
# Assay: cell viability relative to DMSO control; higher = less cytotoxic
# Conditions: 48 h
# Method in brief: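 Viability was expressed as a per-plate percentage of DMSO wells, with cell-free wells as background. Leukemia cells (NOMO1 or SEM at 500 cells/well, P12-Ichikawa at 1000 cells/well) were adapted for at least four passages in each medium and seeded in 1536-well plates (5 μl). Library compounds in DMSO were pin-dosed over an 11-point threefold series from 47 μM to 0.79 nM, and CellTiter-Glo One luminescence was read after 48 h at 37°C.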
# [1] = HPLM + 10% dialyzed FBS, 0.000781 µM
# [2] = HPLM + 10% dialyzed FBS, 0.00234 µM
# [3] = HPLM + 10% dialyzed FBS, 0.00702 µM
# [4] = HPLM + 10% dialyzed FBS, 0.0211 µM
# [5] = HPLM + 10% dialyzed FBS, 0.0632 µM
# [6] = HPLM + 10% dialyzed FBS, 0.19 µM
# [7] = HPLM + 10% dialyzed FBS, 0.569 µM
# [8] = HPLM + 10% dialyzed FBS, 1.71 µM
# [9] = HPLM + 10% dialyzed FBS, 5.12 µM
# [10] = HPLM + 10% dialyzed FBS, 15.4 µM
# [11] = HPLM + 10% dialyzed FBS, 46.1 µM
# [12] = RPMI 5 mM glucose + 10% FBS, 0.000781 µM
# [13] = RPMI 5 mM glucose + 10% FBS, 0.00234 µM
# [14] = RPMI 5 mM glucose + 10% FBS, 0.00702 µM
# [15] = RPMI 5 mM glucose + 10% FBS, 0.0211 µM
# [16] = RPMI 5 mM glucose + 10% FBS, 0.0632 µM
# [17] = RPMI 5 mM glucose + 10% FBS, 0.19 µM
# [18] = RPMI 5 mM glucose + 10% FBS, 0.569 µM
# [19] = RPMI 5 mM glucose + 10% FBS, 1.71 µM
# [20] = RPMI 5 mM glucose + 10% FBS, 5.12 µM
# [21] = RPMI 5 mM glucose + 10% FBS, 15.4 µM
# [22] = RPMI 5 mM glucose + 10% FBS, 46.1 µM
# [23] = RPMI 5 mM glucose + 10% dialyzed FBS, 0.000781 µM
# [24] = RPMI 5 mM glucose + 10% dialyzed FBS, 0.00234 µM
# [25] = RPMI 5 mM glucose + 10% dialyzed FBS, 0.00702 µM
# [26] = RPMI 5 mM glucose + 10% dialyzed FBS, 0.0211 µM
# [27] = RPMI 5 mM glucose + 10% dialyzed FBS, 0.0632 µM
# [28] = RPMI 5 mM glucose + 10% dialyzed FBS, 0.19 µM
# [29] = RPMI 5 mM glucose + 10% dialyzed FBS, 0.569 µM
# [30] = RPMI 5 mM glucose + 10% dialyzed FBS, 1.71 µM
# [31] = RPMI 5 mM glucose + 10% dialyzed FBS, 5.12 µM
# [32] = RPMI 5 mM glucose + 10% dialyzed FBS, 15.4 µM
# [33] = RPMI 5 mM glucose + 10% dialyzed FBS, 46.1 µM
Structure (SMILES),cell viability [1],cell viability [2],cell viability [3],cell viability [4],cell viability [5],cell viability [6],cell viability [7],cell viability [8],cell viability [9],cell viability [10],cell viability [11],cell viability [12],cell viability [13],cell viability [14],cell viability [15],cell viability [16],cell viability [17],cell viability [18],cell viability [19],cell viability [20],cell viability [21],cell viability [22],cell viability [23],cell viability [24],cell viability [25],cell viability [26],cell viability [27],cell viability [28],cell viability [29],cell viability [30],cell viability [31],cell viability [32],cell viability [33]
NCCCCNCCCN,74.8%,80.2%,75.4%,89.7%,97.8%,99.5%,87.6%,99.2%,101%,19.7%,3.89%,107%,73.5%,97%,93.9%,108%,110%,99.1%,106%,106%,43.5%,4.26%,88%,83.7%,94.2%,75.6%,106%,103%,93.7%,99.4%,91.9%,21.4%,4.65%
CC[C@@]1(O)C(=O)OC\C2=C1\C=C\3N(CC4=C3N=C5C=CC=CC5=C4)C2=O,126%,116%,110%,103%,40.3%,14.9%,7.26%,4.92%,4.54%,4.65%,5.06%,105%,86.8%,87.2%,55.3%,15.3%,11.4%,6.29%,3.5%,3.72%,3.35%,4.07%,127%,119%,105%,77.2%,28.1%,13.4%,7.26%,4.41%,4.16%,4.15%,4.83%
COc1ccc2c(c1)c(CC(=O)OCC(=O)O)c(C)n2C(=O)c1ccc(Cl)cc1,109%,114%,111%,110%,112%,110%,119%,102%,113%,109%,106%,121%,126%,121%,120%,113%,111%,109%,99.8%,113%,98.4%,102%,119%,131%,123%,123%,116%,116%,128%,110%,112%,113%,100%
Nc1nnc(-c2cccc(Cl)c2Cl)c(N)n1,80.7%,80%,98.9%,21.9%,96.6%,92.1%,96.5%,103%,105%,115%,92.4%,71.7%,74.5%,85.2%,13.1%,97.6%,96.7%,104%,99.1%,99.9%,90.4%,89.7%,88.5%,88.1%,88.2%,16.1%,92.1%,97.5%,103%,101%,101%,107%,113%
Cn1c(=O)n(-c2ccc(C(C)(C)C#N)cc2)c2c3cc(-c4cnc5ccccc5c4)ccc3ncc21,94%,104%,96%,86.7%,82%,66.3%,50.5%,38.8%,28.3%,22.1%,22.3%,68%,56.2%,64.5%,64.3%,46%,33.6%,27.7%,15%,8.98%,9.61%,6.98%,98.6%,89%,89.8%,86.1%,65.7%,57.9%,51.4%,35%,24.2%,13.2%,14.4%
Nc1cccc2c1CN([C@H]1CCC(=O)NC1=O)C2=O,120%,131%,110%,121%,115%,114%,103%,97.6%,81.8%,99.5%,89.5%,–,–,–,–,–,–,–,–,–,–,–,109%,108%,117%,111%,120%,109%,111%,103%,103%,88.8%,81.4%
COc1ccc(Nc2nccc(NCCO)n2)cc1,61.7%,67.9%,61.4%,75.8%,81.4%,69.6%,63.7%,78.6%,64%,75.4%,64.7%,75.9%,80.1%,78%,87.4%,77.1%,79%,78.3%,85.1%,42.1%,91.5%,92.9%,64.5%,65.3%,73.3%,95%,91.8%,78.6%,81.4%,74.7%,74.1%,92.5%,68.2%
COc1cc2nc(-c3cc(F)ccc3O)nc(N[C@@H]3CNC[C@H]3C(C)(C)O)c2cc1OC,57.3%,96.4%,90.5%,97.4%,89.5%,59.6%,45.6%,37.2%,28.3%,16.1%,7.01%,59.9%,101%,99.6%,94.6%,90.4%,62.3%,54.6%,35.7%,25.6%,14.5%,5.78%,46.9%,94.4%,80.5%,86.5%,64%,45.2%,34.6%,30.6%,15.8%,14.3%,6.75%
